This assay deals with T1, CYP9K1 (Anopheles gambiae, UniProt Q8T633).
T1 sequence (Q8T633 1-531): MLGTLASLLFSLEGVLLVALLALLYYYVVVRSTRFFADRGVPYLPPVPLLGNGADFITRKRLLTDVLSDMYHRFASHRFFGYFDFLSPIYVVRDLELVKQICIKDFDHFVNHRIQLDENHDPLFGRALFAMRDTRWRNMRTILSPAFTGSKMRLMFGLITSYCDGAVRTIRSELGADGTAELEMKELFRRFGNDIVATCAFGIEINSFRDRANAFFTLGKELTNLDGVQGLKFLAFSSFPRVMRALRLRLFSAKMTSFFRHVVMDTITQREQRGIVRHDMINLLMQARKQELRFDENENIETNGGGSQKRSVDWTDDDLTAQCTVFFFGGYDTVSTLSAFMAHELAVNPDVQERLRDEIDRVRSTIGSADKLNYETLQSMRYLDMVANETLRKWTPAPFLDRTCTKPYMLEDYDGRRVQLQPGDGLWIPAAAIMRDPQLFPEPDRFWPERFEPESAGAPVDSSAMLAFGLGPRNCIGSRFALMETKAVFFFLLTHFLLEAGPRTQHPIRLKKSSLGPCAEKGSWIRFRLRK
T1 sequence (Q86QH5 1-679 partner): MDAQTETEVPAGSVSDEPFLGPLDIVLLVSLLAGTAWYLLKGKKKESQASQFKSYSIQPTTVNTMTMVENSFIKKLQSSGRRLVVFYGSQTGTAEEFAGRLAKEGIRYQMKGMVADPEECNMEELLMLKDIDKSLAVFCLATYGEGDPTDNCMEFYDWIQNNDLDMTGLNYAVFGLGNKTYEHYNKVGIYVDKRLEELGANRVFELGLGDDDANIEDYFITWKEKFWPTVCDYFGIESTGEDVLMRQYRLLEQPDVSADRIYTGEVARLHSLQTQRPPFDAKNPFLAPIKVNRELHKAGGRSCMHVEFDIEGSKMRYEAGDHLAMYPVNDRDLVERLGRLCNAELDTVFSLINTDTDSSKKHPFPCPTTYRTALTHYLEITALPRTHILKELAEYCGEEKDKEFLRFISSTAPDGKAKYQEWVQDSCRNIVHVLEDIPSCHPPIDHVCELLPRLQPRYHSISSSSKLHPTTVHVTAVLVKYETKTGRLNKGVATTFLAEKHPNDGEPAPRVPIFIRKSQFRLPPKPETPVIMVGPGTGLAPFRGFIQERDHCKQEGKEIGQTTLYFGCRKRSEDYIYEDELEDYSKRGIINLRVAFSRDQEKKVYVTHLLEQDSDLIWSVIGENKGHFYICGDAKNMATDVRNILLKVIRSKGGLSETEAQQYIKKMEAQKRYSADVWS
T1 sequence (Q86QH4 1-128 partner): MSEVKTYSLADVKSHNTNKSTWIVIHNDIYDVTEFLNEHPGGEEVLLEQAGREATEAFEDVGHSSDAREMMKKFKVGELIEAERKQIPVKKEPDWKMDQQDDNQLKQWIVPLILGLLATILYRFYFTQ
Put plainly: HPLC substrate depletion, Michaelis-Menten fit. Format: biochemical. Conditions: NADPH generating system; AgCPR, AgCytb5; Tris-HCl 0.2 M pH 7.4, 0.25 mM MgCl2, 30 °C; 0.5-150 μM deltamethrin.

Structures are written as SMILES.

As to `CC1(C)[C@H](C(=O)O[C@H](C#N)c2cccc(Oc3ccccc3)c2)[C@@H]1C=C(Br)Br` [deltamethrin], the Km is 28.2 µM.

For the origin of these results see PMC5939083 (Proceedings of the National Academy of Sciences of the …, 2018).
